Laboratory results as given in patent publication US20260015354A1, “Solid State Forms of Ensifentrine” (Cipla Limited, priority 2022, published 2026).
In brackets after ≈: the same amount, converted by molar mass.

Test: Comparative solubility of crystalline forms of Ensifentrine at pH 3
Type: physicochemical
Settings: for solubility compared to Form I: comparison in words
Source text: The solubility of Form C1 and Form I disclosed in U.S. Pat. No. 9,062,047 at pH 3 were compared.
The solubility of Form C3 and Form I disclosed in U.S. Pat. No. 9,062,047 at pH 3 was compared.

Structure (SMILES)	solubility compared to Form I	solubility (time 15 min)	solubility (time 30 min)	solubility (time 60 min)	solubility (time 120 min)	solubility (time 240 min)
COc1cc2c(cc1OC)-c1c/c(=N\c3c(C)cc(C)cc3C)n(CCNC(N)=O)c(=O)n1CC2 [Form C3]	better solubility compared to Form I	2110 µg/mL (≈ 4.42 mM)	1960 µg/mL (≈ 4.1 mM)	2000 µg/mL (≈ 4.19 mM)	2050 µg/mL (≈ 4.29 mM)	2130 µg/mL (≈ 4.46 mM)
COc1cc2c(cc1OC)-c1c/c(=N\c3c(C)cc(C)cc3C)n(CCNC(N)=O)c(=O)n1CC2 [Form C1]	better solubility compared to Form I	–	–	–	–	–
COc1cc2c(cc1OC)-c1c/c(=N\c3c(C)cc(C)cc3C)n(CCNC(N)=O)c(=O)n1CC2 [Form I, reference compound]	–	1380 µg/mL (≈ 2.89 mM)	1390 µg/mL (≈ 2.91 mM)	1310 µg/mL (≈ 2.74 mM)	1350 µg/mL (≈ 2.83 mM)	1390 µg/mL (≈ 2.91 mM)
